These results are taken from patent US4321384A, “Antihypertensive agents” (American Home Products Corporation, priority 1981, dated 1982).

Counter-ions that a name gives are not always drawn.

The test system of experiment [1] is spontaneously hypertensive rats. Briefly: Systolic blood pressure lowering in spontaneously hypertensive rats. Format: in vivo, rat. As to the method: The in vivo blood pressure lowering ability of the compounds of this invention was established by measuring the systolic pressure of spontaneously hypertensive rats with a Decker Caudal Plethysmograph or similar sensor device. The compound being tested is administered to groups of four rats and their blood pressure is read prior to compound administration and at 1.5 and 4 hours after compound administration. Depending upon the behavior of the compound being tested, the schedule of blood pressure readings and route of administration is modified. Initially the compounds are administered orally but where compound solubility is a factor, the compounds may be administered parenterally (i.e. i.p., i.m., s.c., i.v., etc.) as desired. The compounds of this invention were initially administered orally at a standard testing dose of 50 mg/kg.
The following examples illustrate the preparation of a representative number of compounds of this invention. After each example, the Ca^+2 antagonist activity of the compound is presented in terms of percent relaxation (P.R.) at the stated concentration. Similarly, the antihypertensive activity is reported in terms of millimeters mercury (mmHg) blood pressure (B.P.) reduction at the stated time post 50 mg/kg oral dosing.

For experiment [2], the system named is rabbit aortic strips. Briefly: Ca+2 antagonism: relaxation of potassium-contracted rabbit aortic strips. The experiment is classed as cell-based. The note with it: Oryctolagus cuniculus; 10^-6 M bath concentration; strips contracted with 100 millimoles potassium ion; read-out: percent relaxation (P.R.).
Experiment [3] deals with rabbit aortic strips. The experiment is described as above. The experiment is classed as cell-based. Particulars: Oryctolagus cuniculus; 10^-5 M bath concentration; strips contracted with 100 millimoles potassium ion; read-out: percent relaxation (P.R.). As to the method: After a stable active tension has developed in the strip, as measured by Statham UC-2 force transducers and recorded on an eight channel Beckman Dynograph Polygraphic Recorder, an amount of the antagonist was added to the organ bath to make a 10^-5 molar concentration of antagonist. The […] effect, expressed as percent relaxation, was taken from the mean of at least two experiments. […] A Ca^+2 antagonist producing a 20 percent relaxation of aortic tissue in this test procedure at a 10^-5 molar bath concentration of the antagonist, generally produces a significant reduction in blood pressure when a sufficient amount is given to the spontaneously hypertensive rat. The following examples illustrate the preparation of a representative number of compounds of this invention. After each example, the Ca^+2 antagonist activity of the compound is presented in terms of percent relaxation (P.R.) at the stated concentration. Similarly, the antihypertensive activity is reported in terms of millimeters mercury (mmHg) blood pressure (B.P.) reduction at the stated time post 50 mg/kg oral dosing.

Experiment [4] relates to spontaneously hypertensive rats. Put plainly: Systolic blood pressure lowering in spontaneously hypertensive rats. Format: in vivo, rat. Particulars: 1.5 hours post dose 25 mg/kg.
Setting [5] is: 1.5 hours post 50 mg/kg oral dosing.
The mark [6] stands for this setting: 4 hours post 50 mg/kg oral dosing.

For the compound `COC(=O)C1=C(C)NC2=C(C(=O)CN(Cc3ccccc3)C2)C1c1ccccc1C` (stereo not shown) [Example 3, 1,4,5,6,7,8-Hexahydro-2-methyl-4-(2-methylphenyl)-5-oxo-7-(phenylmethyl)-1,7-naphthyridine-3-carboxylic acid methyl ester], the entries for the “blood pressure (B.P.) reduction” value in experiment [1] (setting [5]) and in experiment [1] (setting [6]) were -23 mmHg and -41 mmHg, respectively. The inhibition at 1 µM in the experiment with rabbit aortic strips [2] was found to be 90%.

In the case of `COC(=O)C1=C(C)NC2=C(C(=O)CN(Cc3ccccc3)C2)C1c1ccccc1C(F)(F)F` (stereo not shown) [Example 5, 1,4,5,6,7,8-Hexahydro-2-methyl-5-oxo-7-(phenylmethyl)-4-[2-(trifluoromethyl)phenyl]-1,7-naphthyridine-3-carboxylic acid methyl ester], in the experiment on rabbit aortic strips [2], the inhibition at 1 µM came to 40%.

Take `COC(=O)C1=C(C)NC2=C(C(=O)CN(Cc3ccccc3)C2)C1c1cccc([N+](=O)[O-])c1` (stereo not shown) [Example 10, 1,4,5,6,7,8-Hexahydro-2-methyl-4-(3-nitrophenyl)-5-oxo-7-(phenylmethyl)-1,7-naphthyridine-3-carboxylic acid methyl ester]: in the experiment with rabbit aortic strips [2], the inhibition at 1 µM came to 89.7%.

As to `COC(=O)C1=C(C)NC2=C(C(=O)CNC2)C1c1cccc([N+](=O)[O-])c1` (stereo not shown) [Example 13, 1,4,5,6,7,8-Hexahydro-2-methyl-4-(3-nitrophenyl)-5-oxo-1,7-naphthyridine-3-carboxylic acid methyl ester], the inhibition at 10 µM with rabbit aortic strips [3] is 86.5%. In experiment [4], the “blood pressure (B.P.) reduction” value was -58 mmHg.

`COC(=O)C1=C(C)NC2=C(C(=O)CN(Cc3ccccc3)C2)C1c1cccc(C(F)(F)F)c1` (stereo not shown) [Example 14 intermediate, 1,4,5,6,7,8-hexahydro-2-methyl-5-oxo-7-(phenylmethyl)-4-[3-(trifluoromethyl)phenyl]-1,7-naphthyridine-3-carboxylic acid methyl ester hydrochloride]: the inhibition at 1 µM in the experiment with rabbit aortic strips [2] worked out at 46.2%.

As to `COC(=O)C1=C(C)NC2=C(C(=O)CN(Cc3ccccc3)C2)C1c1ccccc1F` (stereo not shown) [Example 15 intermediate, 4-(2-fluorophenyl)-1,4,5,6,7,8-hexahydro-2-methyl-5-oxo-7-(phenylmethyl)-1,7-naphthyridine-3-carboxylic acid methyl ester hydrochloride], in the experiment on rabbit aortic strips [2], the inhibition at 1 µM was 48%.

For the compound `COC(=O)C1=C(C)NC2=C(C(=O)CNC2)C1c1ccccc1F` (stereo not shown) [Example 15, 4-(2-Fluorophenyl)-1,4,5,6,7,8-hexahydro-2-methyl-5-oxo-1,7-naphthyridine-3-carboxylic acid methyl ester], the inhibition at 10 µM with rabbit aortic strips [3] was 54%. Besides, in experiment [1] (setting [5]), the “blood pressure (B.P.) reduction” value is -45 mmHg.

Turning to `COC(=O)C1=C(C)NC2=C(C(=O)CN(C)C2)C1c1cccc(C#N)c1` (stereo not shown) [Example 16, 4-(3-Cyanophenyl)-1,4,5,6,7,8-Hexahydro-2,7-dimethyl-5-oxo-1,7-naphthyridine-3-carboxylic acid methyl ester], in the experiment on rabbit aortic strips [3], the inhibition at 10 µM was 66%. Further, the “blood pressure (B.P.) reduction” value in experiment [1] (setting [5]) is on record as -53 mmHg.

With `COC(=O)C1=C(C)NC2=C(C(=O)CN(C)C2)C1c1cccc(C)c1C` (stereo not shown) [Example 17, 4-(2,3-Dimethylphenyl)-1,4,5,6,7,8-hexahydro-2,7-dimethyl-5-oxo-1,7-naphthyridine-3-carboxylic acid methyl ester], the inhibition at 10 µM in the experiment on rabbit aortic strips [3] came out at 54%. In addition, the “blood pressure (B.P.) reduction” value in experiment [1] (setting [6]) is on record as -40 mmHg.

As to `CCCCc1ccccc1C1C(C(=O)OC)=C(C)NC2=C1C(=O)CN(Cc1ccccc1)C2` (stereo not shown) [Example 18, 4-[2-(n-butyl)phenyl]-1,4,5,6,7,8-Hexahydro-2-methyl-5-oxo-7-(phenylmethyl)-1,7-naphthyridine-3-carboxylic acid methyl ester], in the experiment on rabbit aortic strips [2], the inhibition at 1 µM worked out at 61%.

As to `CCCCc1ccccc1C1C(C(=O)OC)=C(C)NC2=C1C(=O)CNC2` (stereo not shown) [Example 19, 4-[2-(n-butyl)phenyl]-1,4,5,6,7,8-hexahydro-2-methyl-5-oxo-1,7-naphthyridine-3-carboxylic acid methyl ester], the inhibition at 10 µM with rabbit aortic strips [3] is 49.2%. Further, in experiment [1] (setting [5]), the “blood pressure (B.P.) reduction” value was -24 mmHg.

As for `COC(=O)C1=C(C)NC2=C(C(=O)CN(Cc3ccccc3)C2)C1c1cccc(C)c1C` (stereo not shown) [Example 20, 4-(2,3-dimethylphenyl)-1,4,5,6,7,8-hexahydro-2-methyl-5-oxo-7-(phenylmethyl)-1,7-naphthyridine-3-carboxylic acid methyl ester], the inhibition at 10 µM in the experiment on rabbit aortic strips [3] was 80.4%. Moreover, the “blood pressure (B.P.) reduction” value in experiment [1] (setting [5]) was -24 mmHg; in experiment [1] (setting [6]), -39 mmHg. The inhibition at 1 µM in the experiment on rabbit aortic strips [2] turned out to be 33.3%.

As for `COC(=O)C1=C(C)NC2=C(C(=O)CNC2)C1c1cccc(C)c1C` (stereo not shown) [Example 21, 4-(2,3-dimethylphenyl)-1,4,5,6,7,8-hexahydro-2-methyl-5-oxo-1,7-naphthyridine-3carboxylic acid methyl ester], in the experiment with rabbit aortic strips [3], the inhibition at 10 µM came to 76.7%. In addition, the “blood pressure (B.P.) reduction” value in experiment [1] (setting [5]) was -42 mmHg; in experiment [1] (setting [6]) it was -45 mmHg.

For `CC1=C(C(=O)OCCN(C)Cc2ccccc2)C(c2ccccc2C(F)(F)F)C2=C(CN(Cc3ccccc3)CC2=O)N1` (stereo not shown) [Example 22, 1,4,5,6,7,8-Hexahydro-2-methyl-5-oxo-7-phenylmethyl-4-[2-(trifluoromethyl)phenyl]-1,7-naphthyridine-3-carboxylic acid, 2-(N-benzyl-N-methylamino)ethylester], the “blood pressure (B.P.) reduction” value in experiment [1] (setting [5]) is -74 mmHg; in experiment [1] (setting [6]), -68 mmHg. Besides, in the experiment with rabbit aortic strips [2], the inhibition at 1 µM worked out at 55.6%.
